Measured values published in the supplement of paper PMC10307832.

Tests used:
Experiment in all cases: relative viability (nuclei count vs DMSO), 5 days (fraction); higher = more cells survive
[1] = compound: CC(=O)c1c(C)c2cnc(Nc3ccc(N4CCNCC4)cn3)nc2n(C2CCCC2)c1=O [Palbociclib]
Outline: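 MetaXpress counted nuclei in 4× images of lung cancer cell lines that had been fixed, permeabilised and Hoechst-stained in one step. Before that, cells in 1536-well plates were kept overnight at 37 °C, pinned with five √10-spaced library-drug doses on vehicle-anchored plates, and cultured 5 days without medium change. Viability takes treated-well nuclei over vehicle-well nuclei and uses the median across plates. Plates were accepted only at control CV below 25% and at least one doubling.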

[2] = compound: CC(=O)c1c(C)c2cnc(Nc3ccc(N4CCNCC4)cn3)nc2n(C2CCCC2)c1=O [Palbociclib] + O=C(c1cc(Cc2n[nH]c(=O)c3ccccc23)ccc1F)N1CCN(C(=O)C2CC2)CC1 [Olaparib] (partner 8 µM)
Outline: (§1)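 Medians of duplicate plates are given as relative viability. That measure is the nuclei count in treated wells divided by the count in vehicle wells. Counts were taken on 4× images of lung cancer cell lines in 1536-well plates, 5 days after pin-tool dosing the day after seeding with one drug alone or a fixed anchor-drug dose plus five library-drug doses (not always all listed) in √10 steps.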

[3] = compound: CC(=O)c1c(C)c2cnc(Nc3ccc(N4CCNCC4)cn3)nc2n(C2CCCC2)c1=O [Palbociclib] + C[C@@H](Oc1cc(-c2cnn(C3CCNCC3)c2)cnc1N)c1c(Cl)ccc(F)c1Cl [Crizotinib] (partner 1 µM)
Outline: as §1

Row | Cell Line | relative viability ([1]; 0.01 µM) | relative viability ([1]; 0.1 µM) | relative viability ([1]; 0.3162 µM) | relative viability ([1]; 0.5 µM, anchor plate) | relative viability ([1]; 1 µM) | relative viability ([2]; first compound 0.01 µM) | relative viability ([2]; first compound 0.1 µM) | relative viability ([2]; first compound 0.3162 µM) | relative viability ([2]; first compound 1 µM) | relative viability ([3]; first compound 0.01 µM) | relative viability ([3]; first compound 0.1 µM) | relative viability ([3]; first compound 0.3162 µM) | relative viability ([3]; first compound 1 µM) | relative viability ([1]; 0.03162 µM) | relative viability ([2]; first compound 0.03162 µM) | relative viability ([3]; first compound 0.03162 µM)
1 | HOP-62 | 0.953 | 0.87 | 0.795 | 0.451 | 0.663 | 0.319 | 0.618 | 0.399 | 0.452 | 0.817 | 0.842 | 0.812 | 0.666 |  |  | 
2 | IA-LM | 0.901 | 0.559 | 0.428 |  | 0.162 | 0.755 | 0.548 | 0.474 | 0.268 | 0.748 | 0.373 | 0.138 | 0.0793 | 0.54 | 0.643 | 0.505
3 | LC-2-ad | 0.902 | 0.816 | 0.73 | 0.479 | 0.518 | 0.744 | 0.688 | 0.642 | 0.553 | 0.417 | 0.421 | 0.44 | 0.328 |  | 0.71 | 
4 | LCLC-97TM1 | 1.03 | 0.657 | 0.741 | 0.225 | 0.272 | 0.326 | 0.308 | 0.311 | 0.262 | 0.345 | 0.257 | 0.313 | 0.259 |  |  | 
5 | LCLC-103H | 1 | 0.858 | 0.833 | 0.469 | 0.537 | 0.701 | 0.731 | 0.669 | 0.584 | 1.04 | 0.846 | 0.995 | 0.804 | 0.762 | 0.709 | 1.04
6 | LK-2 | 1 | 0.8 | 0.965 | 0.727 | 0.803 | 0.896 | 0.625 | 0.585 | 0.556 | 0.247 | 0.23 | 0.227 | 0.246 | 0.736 | 0.656 | 
7 | LOU-NH91 | 1.09 | 0.723 | 0.702 | 0.529 | 0.608 | 0.959 | 0.677 | 0.664 | 0.559 | 0.745 | 0.584 | 0.592 | 0.505 | 0.661 | 0.696 | 0.676
8 | LU99A | 0.91 | 0.924 | 0.928 | 0.414 | 0.65 | 0.24 | 0.281 | 0.26 | 0.271 | 0.636 | 0.496 | 0.428 | 0.389 | 0.711 |  | 0.559
9 | LXF-289 | 1.01 | 0.928 | 0.899 | 0.593 | 0.796 | 1.1 | 0.951 | 0.969 | 0.865 | 0.747 | 0.782 | 0.684 | 0.612 | 0.878 | 1.08 | 0.811
10 | NCI-H23 | 0.973 | 0.765 | 0.877 | 0.538 | 0.593 | 0.375 | 0.325 | 0.305 | 0.289 | 0.613 | 0.436 | 0.458 | 0.428 | 0.417 | 0.311 | 
11 | NCI-H322M | 0.888 | 0.633 | 0.648 | 0.492 | 0.502 | 0.762 | 0.702 | 0.599 | 0.445 | 0.949 | 0.858 | 0.813 | 0.697 | 0.825 | 0.709 | 0.883
12 | NCI-H358 | 0.986 | 0.718 | 0.543 | 0.138 | 0.277 | 0.571 | 0.452 | 0.292 | 0.136 | 0.453 | 0.335 | 0.332 | 0.187 | 0.675 | 0.486 | 0.479
13 | NCI-H441 | 0.829 | 0.741 | 0.741 | 0.235 | 0.5 | 0.657 | 0.45 | 0.452 | 0.298 | 0.685 | 0.474 | 0.546 | 0.433 | 0.655 | 0.449 | 0.593
14 | NCI-H460 | 0.974 | 0.912 | 0.864 | 0.199 | 0.532 | 0.433 | 0.378 | 0.323 | 0.165 | 0.938 | 0.581 | 0.582 | 0.205 | 0.81 | 0.289 | 0.781
15 | NCI-H520 | 0.915 | 0.596 | 0.549 | 0.237 | 0.36 | 0.289 | 0.255 | 0.199 | 0.173 | 0.748 | 0.648 | 0.641 | 0.337 | 0.677 | 0.35 | 0.551
16 | NCI-H522 | 1.15 | 0.949 | 0.915 | 1.02 | 0.879 | 0.642 | 0.689 | 0.678 | 0.616 |  |  |  |  | 0.616 | 0.612 | 
17 | NCI-H596 | 0.894 | 0.9 | 0.876 |  | 1.04 | 0.708 | 0.724 | 0.707 | 0.68 | 0.98 | 0.986 | 1.05 | 0.973 | 0.775 | 0.809 | 0.905
18 | NCI-H647 | 1.06 | 0.865 | 0.82 | 0.415 | 0.597 | 0.809 | 0.502 | 0.513 | 0.442 | 0.947 | 0.759 | 0.735 | 0.462 | 0.781 | 0.488 | 0.809
19 | NCI-H1395 | 1.01 | 0.797 | 0.858 | 0.647 | 0.597 | 0.429 | 0.421 | 0.477 | 0.514 |  |  |  |  | 0.825 | 0.423 | 
20 | NCI-H1563 | 0.988 | 0.85 | 0.869 |  | 0.853 |  |  |  |  | 0.852 | 0.813 | 0.759 | 0.67 | 0.896 |  | 0.832
21 | NCI-H1648 | 1.12 | 0.667 | 0.764 | 0.284 | 0.336 | 0.679 | 0.518 | 0.587 | 0.37 |  |  |  |  | 0.451 | 0.71 | 
22 | NCI-H1793 | 1.02 | 0.77 | 0.682 | 0.325 | 0.327 | 1.03 | 0.832 | 0.81 | 0.501 |  |  |  |  | 0.54 | 0.628 | 
23 | SW 900 | 1.01 | 0.768 | 0.565 | 0.565 | 0.541 | 0.914 | 0.975 | 0.865 | 0.725 |  |  |  |  |  |  | 
